Measurements from patent US9751853B2, “Solid forms of 3-(5-amino-2-methyl-4-oxo-4H-quinazolin-3-yl)-piperidine-2,6-dione, and their pharmaceutical compositions and uses” (Celgene Corporation, priority 2011, dated 2017).
Entries after “also recorded” stand apart in the source; their conditions may differ.

Assays:
[1] = Dynamic Vapor Sorption (moisture sorption); assay type: physicochemical
Method: Dynamic Vapor Sorption (DVS): Hygroscopicity was determined on a Surface Measurement Systems DVS. Typically, a sample of about 2-10 mg was loaded into the DVS instrument sample pan. The sample was analyzed on a DVS automated sorption analyzer at room temperature. The relative humidity was increased from 0 to 95% RH at 10% RH step, then at 95% RH. The relative humidity was then decreased in a similar manner to accomplish a full adsorption/desorption cycle.

[2] = Stability upon compression; details: 2000-psi pressure for about 1 minute
[3] = Humidity studies, solid form by XRPD; assay type: physicochemical
Method: Humidity Studies: […] The vials were placed in 40° C./75% RH humidity chamber with one vial capped and one vial open. The solids were tested by XRPD after four weeks. […] X-ray Powder Diffraction (XRPD): XRPD analysis was conducted on a Thermo ARL X'TRA™ X-ray powder diffractometer using Cu Kα radiation at 1.54 Å. The instrument was equipped with a fine focus X-ray tube. The voltage and amperage of X-ray generator were set at 45 kV and 40 mA, respectively. The divergence slices were set at 4 mm and 2 mm and the measuring slices were set at 0.5 mm and 0.2 mm. Diffracted radiation was detected by a peltier-cooled Si(Li) solid-state detector. A theta-two theta continuous scan at 2.40°/min (0.5 sec/0.02° step) from 1.5°2θ to 40°2θ was used. A sintered alumina standard was used to check the peak position. In general, positions of XRPD peaks are expected to individually vary on a measurement-by-measurement basis by about +0.2°2θ. In general, as understood in the art, two XRPD patterns match one another if the characteristic peaks of the first pattern are located at approximately the same positions as the characteristic peaks of the second pattern. As understood in the art, determining whether two XRPD patterns match or whether individual peaks in two XRPD patterns match may require consideration of individual variables and parameters such as, but not limited to, preferred orientation, phase impurities, degree of crystallinity, particle size, variation in diffractometer instrument setup, variation in XRPD data collection parameters, and/or variation in XRPD data processing, among others. The determination of whether two patterns match may be performed by eye and/or by computer analysis.

[4] = Equilibration/slurry experiments, solid form by XRPD; assay type: physicochemical
Method: Equilibration/Slurry and Evaporation: Equilibration and evaporation experiments were carried out by adding an excess of Compound A hydrochloride to about 2 mL of a test solvent. The resulting mixture was agitated for at least 24 hrs at about 25° C. or about 50° C. Upon reaching equilibrium, the saturated solution was removed and allowed to evaporate slowly in an open vial under nitrogen at about 25° C. and about 50° C., respectively. The solids resulting from the equilibration were filtered and dried in the air.
X-ray Powder Diffraction (XRPD): XRPD analysis was conducted on a Thermo ARL X'TRA™ X-ray powder diffractometer using Cu Kα radiation at 1.54 Å. The instrument was equipped with a fine focus X-ray tube. The voltage and amperage of X-ray generator were set at 45 kV and 40 mA, respectively. The divergence slices were set at 4 mm and 2 mm and the measuring slices were set at 0.5 mm and 0.2 mm. Diffracted radiation was detected by a peltier-cooled Si(Li) solid-state detector. A theta-two theta continuous scan at 2.40°/min (0.5 sec/0.02° step) from 1.5°2θ to 40°2θ was used. A sintered alumina standard was used to check the peak position. In general, positions of XRPD peaks are expected to individually vary on a measurement-by-measurement basis by about +0.2°2θ. In general, as understood in the art, two XRPD patterns match one another if the characteristic peaks of the first pattern are located at approximately the same positions as the characteristic peaks of the second pattern. As understood in the art, determining whether two XRPD patterns match or whether individual peaks in two XRPD patterns match may require consideration of individual variables and parameters such as, but not limited to, preferred orientation, phase impurities, degree of crystallinity, particle size, variation in diffractometer instrument setup, variation in XRPD data collection parameters, and/or variation in XRPD data processing, among others. The determination of whether two patterns match may be performed by eye and/or by computer analysis.

Cc1nc2cccc(N)c2c(=O)n1C1CCC(=O)NC1=O.Cl (stereo not shown) [Form A1, 3-(5-amino-2-methyl-4-oxo-4H-quinazolin-3-yl)-piperidine-2,6-dione hydrochloride]
hygroscopicity ([1]; DVS 0 to 95% RH): non-hygroscopic | XRPD after full adsorption/desorption cycle ([1]; after DVS cycle): unchanged | mass change relative to the dry mass ([1]; relative humidity increased from 0 to 95%): 0.15% | stability upon compression [2]: stable | Solid form after humidity exposure ([3]; 40° C./75% RH environment for four weeks): not changed | XRPD Result after humidity exposure ([3]; 40° C./75% RH for 4 weeks, closed vial): Form A1 | XRPD Result after humidity exposure ([3]; 40° C./75% RH for 4 weeks, open vial): Form A1 | XRPD Result after humidity exposure ([3]; 95% RH at room temperature for 4 days, hydrochloride): not changed; also recorded: Form A1 | XRPD Result after equilibration ([4]; slurry at 50° C., 2-Propanol): Form A1 | XRPD Result after equilibration ([4]; slurry at 50° C., Acetone): Form A1 | XRPD Result after equilibration ([4]; slurry at 50° C., Acetonitrile): Form A1 | XRPD Result after equilibration ([4]; slurry at 50° C., Acetonitrile/Water (1:1)): Form A + Form A1 | XRPD Result after equilibration ([4]; slurry at 50° C., Ethanol): Form A1 | XRPD Result after equilibration ([4]; slurry at 50° C., Ethanol/Water (1:1)): Form A + Form A1 | XRPD Result after equilibration ([4]; slurry at 50° C., Ethyl acetate): Form A1 | XRPD Result after equilibration ([4]; slurry at 50° C., Heptane): Form A1 | XRPD Result after equilibration ([4]; slurry at 50° C., Methanol): Form A1 | XRPD Result after equilibration ([4]; slurry at 50° C., Methyl ethyl ketone): Form A1 | XRPD Result after equilibration ([4]; slurry at 50° C., Tetrahydrofuran): Form A1 | XRPD Result after equilibration ([4]; slurry at 50° C., Tetrahydrofuran/Water (1:1)): Form A1 | XRPD Result after equilibration ([4]; slurry at 50° C., Toluene): Form A1 | XRPD Result after equilibration ([4]; slurry at 50° C., Water): Form A + Form A1 | XRPD Result after equilibration ([4]; slurry at 50° C., n-Butanol): Form A1 | XRPD Result after equilibration ([4]; slurry at room temperature, 2-Propanol): Form A1 | XRPD Result after equilibration ([4]; slurry at room temperature, Acetone): Form A1 | XRPD Result after equilibration ([4]; slurry at room temperature, Acetonitrile): Form A1 | XRPD Result after equilibration ([4]; slurry at room temperature, Acetonitrile/Water (1:1)): Form A + Form A1 | XRPD Result after equilibration ([4]; slurry at room temperature, Ethanol): Form A1 | XRPD Result after equilibration ([4]; slurry at room temperature, Ethanol/Water (1:1)): Form A + Form A1 | XRPD Result after equilibration ([4]; slurry at room temperature, Ethyl acetate): Form A1 | XRPD Result after equilibration ([4]; slurry at room temperature, Heptane): Form A1 | XRPD Result after equilibration ([4]; slurry at room temperature, Methanol): Form A1 | XRPD Result after equilibration ([4]; slurry at room temperature, Methyl ethyl ketone): Form A1 | XRPD Result after equilibration ([4]; slurry at room temperature, Methyl t-butyl ether): Form A1 | XRPD Result after equilibration ([4]; slurry at room temperature, Methylene chloride): Form A1 | XRPD Result after equilibration ([4]; slurry at room temperature, Tetrahydrofuran): Form A1 | XRPD Result after equilibration ([4]; slurry at room temperature, Tetrahydrofuran/Water (1:1)): Form A + Form A1 | XRPD Result after equilibration ([4]; slurry at room temperature, Toluene): Form A1 | XRPD Result after equilibration ([4]; slurry at room temperature, Water): Form A + Form A1 | XRPD Result after equilibration ([4]; slurry at room temperature, n-Butanol): Form A1
